Laboratory results: US9227995B2, “Peptides” (DRUG DISCOVERY LABORATORY AS, priority 2010, dated 2016)

Assay: aqueous solubility of the peptide
Assay type: physicochemical
Conditions: water; stated as significantly higher compared to acyclic 21

solubility: > 1000 µM
Compound: COC(=O)C(C)(C)NC(=O)[C@@H]1COCc2cn(nn2)CCC[C@H](NC(=O)C(C)(C)NC(=O)C(C)(C)NC(=O)C(C)(C)NC(=O)OC(C)(C)C)C(=O)NC(C)(C)C(=O)NC(C)(C)C(=O)N1 [compound 23, Methyl 2-methyl-2-((5S,14S)-8,8,11,11-tetramethyl-5-(2,2,6,6,9,9,12,12-octamethyl-4,7,10-trioxo-3-oxa-5,8,11-triazamidecanamido)-6,9,12-trioxo-16-oxa-1,7,10,13,19,20-hexaazabicyclo[16.2.1]henicosa-18 (21),19-dienecarboxamido)propanoate]
